“Also recorded” adds a separate entry of the source. Marks after values point to notes of the source that are not given here.
Tests used:
[1] = tested on: ovariectomized CD-1 mice; test: Bone histomorphometry, Model 1 mouse OVX; assay type: in vivo; details: OVX CD-1 mice; GA single s.c.; 8 weeks
Description: Patterns of bone mineralization (BM: decreased), resorption cavities (RC: increased) and osteoclasts (stained multinuclear cells (two arrows): increased) were affected by OVX. These effects were reversed by drug treatment. In one aspect, this means that targeting CCK2 receptors normalizes bone morphology irrespective of low estrogen levels.
Gastrin-antagonist treatment reversed these phenomena (FIG. 45).

[2] = tested on: ovariectomized CD rats; test: Bone strength (Instron), Model 2 rat OVX; assay type: in vivo
[3] = tested on: calvarial osteoblasts, hFOB, BMMSCs; test: Bone mineralization of bone-derived cells (fluorescent binding to hydroxyapatite); assay type: cell-based, mouse, human; details: pre-incubation
Description: The binding of fluorescent Osteomalge to the hydroxyapatite portion of mineralized nodules was measured.

[4] = tested on: ovariectomized CD-1 mice; test: MicroCT of trabecular and cortical bone, Model 1 mouse OVX; assay type: in vivo
[5] = tested on: ovariectomized CD-1 mice; test: Circulating blood markers, Model 1 mouse OVX; assay type: in vivo
Description: Ovariectomy increased all three bone markers, PINP, CTX1 and osteocalcin. […] CON=control animals, OVX=ovariectomized animals, OVX+GA=gastrin antagonist treated ovariectomized animals. Mean±SEM. *p<0.05 vs. CON, **p<0.05 vs. OVX alone.
Circulating bone biomarkers were also altered by OVX. Specifically, PINP was increased (0.19±0.01 ng/ml vs. 0.1y±0.006, p<0.05) as was CTx-1 (0.60±0.14 ng/ml vs. 0.29±0.13, p<0.05) and osteocalcin was elevated (6.7±2.3 ng/ml vs. 4.1±1.2, p<0.05). Treatment with the antagonist attenuated each of these three ovariectomy-mediated alterations.

[6] = tested on: ovariectomized Mastomys; test: Circulating blood markers, Model 3 Mastomys OVX; assay type: in vivo
Description: CON=control animals, OVX=ovariectomized animals, OVX+GA=gastrin antagonist treated ovariectomized animals. Mean±SEM. *p<0.05 vs. CON, **p<0.05 vs. OVX alone.
Circulating bone biomarkers were also altered by OVX. Specifically, PINP was increased (0.16±0.03 ng/ml vs. 0.13±0.01, p<0.05) as was CTx-1 (0.24±0.17 ng/ml vs. 0.03±0.03, p<0.05) while osteocalcin was elevated (1.6±1.1 ng/ml vs. 0.4±0.16, p<0.05). Treatment with the antagonist attenuated each of these three ovariectomy-mediated alterations.

[7] = tested on: ovariectomized CD rats; test: MicroCT of trabecular and cortical bone, Model 2 rat OVX
Description: Microcomputed tomography (MicroCT) and bone bending as well as osmium uptake and PCR were used to evaluate bone dynamics and osteoporotic features in the different animal models. MicroCT assesses density and volume of both the trabecular and cortical bones. Measurements of the radius and circumference of the cortical bone can be undertaken. Calculations of the connectivity density, the structural model index (SMI) as well as the stiffness (all measures of structure) of the bone can be made. The polar moment of inertia (pMOI) as well as fracture and workloads identify the underlying bone strength.
Both mice and rats were exposed to the PPI, omeprazole, while the Mastomys were exposed to the H2 Receptor antagonist, loxitidine. GA administration was a single subcutaneous injection at the start of acid inhibition. Pharmacokinetically, this dose ranges between 15-20 nmol over an 8 week period.
Three groups were included for each animal model: a) Group A=placebo/saline treated (no OVX/Controls); b) Group B=OVX+Acid Inhibitory therapy (OVX); and c) Group C=GA treated ovariectomized animals (OVX+GA). At the termination of study (2 months), we evaluated whether the GA reversed the OVX-mediated alterations in bone parameters (microCT, bone strength and histomorphometry as well as circulating markers).
At the start of GA treatment, animals were 98 days (3.2 months) and at study termination, they were 163 days (5.4 months).

[8] = OVX CD rats + omeprazole, GA 50 ug/animal single s.c., 8 weeks
[9] = OVX CD rats, GA-treated vs control
[10] = OVX CD-1 mice + omeprazole, GA 15 ug/animal single s.c., 8 weeks, cortical bone
[11] = OVX CD-1 mice + omeprazole, GA 15 ug/animal single s.c., 8 weeks, trabecular bone
[12] = OVX CD-1 mice, GA-treated vs control, cortical bone
[13] = OVX CD-1 mice, GA-treated vs control, trabecular bone
[14] = OVX CD-1 mice + omeprazole, GA 15 ug/animal single s.c., 8 weeks
[15] = OVX CD-1 mice, GA-treated vs control
[16] = OVX Mastomys + loxitidine, GA 10 ug/animal single s.c., 8 weeks
[17] = OVX Mastomys + loxitidine, GA 10 ug/animal single s.c., 8 weeks, listed as GA
[18] = OVX Mastomys + loxitidine, GA 10 ug/animal single s.c., 8 weeks, listed as antagonist
[19] = OVX Mastomys, GA-treated vs control
[20] = OVX CD rats + omeprazole, GA 50 ug/animal single s.c., 8 weeks, cortical bone
[21] = OVX CD rats + omeprazole, GA 50 ug/animal single s.c., 8 weeks, trabecular bone
[22] = OVX CD rats + omeprazole, GA 50 ug/animal single s.c., 8 weeks, trabecular bone, listed as GA
[23] = OVX CD rats + omeprazole, GA 50 ug/animal single s.c., 8 weeks, trabecular bone, listed as Gastrin antagonist
[24] = OVX CD rats, GA-treated vs control, cortical bone
[25] = OVX CD rats, GA-treated vs control, trabecular bone

Compound: CNc1cccc(NC(=O)N[C@@H]2N=C(c3ccccn3)c3ccccc3N(CC(=O)C(C)(C)C)C2=O)c1 [YF476, netazepide]
- effect on OVX changes in bone mineralization, resorption cavities and TRAP-positive osteoclasts [1]: reversed
- Fracture Load [2, 8]: 276
- Max Load [2, 8]: 282
- Stiffness [2, 8]: 565
- Total Work [2, 8]: 276
- Yield (Stiffness) [2, 8]: 508
- % Change Fracture Load [2, 9]: −8%
- % Change Max Load [2, 9]: 0%
- % Change Stiffness [2, 9]: −2%**
- % Change Total Work [2, 9]: 0%
- % Change Yield (Stiffness) [2, 9]: −2%**
- effect on gastrin inhibition of mineralization [3]: inhibited; also recorded: not reversed
- BS [4, 10]: 11.3
- BV/TV [4, 10]: 0.93
- Ct. Th [4, 10]: 0.21
- pMOI [4, 10]: 0.35
- Dens (Apparent Density, cortical) ([4]; OVX CD-1 mice + omeprazole, GA 15 ug/animal single s.c., 8 weeks, cortical bone, listed as GA): 1025
- Dens (Apparent Density, cortical) ([4]; OVX CD-1 mice + omeprazole, GA 15 ug/animal single s.c., 8 weeks, cortical bone, listed as Gastrin-antagonist): 1025±37
- BS [4, 11]: 16.8
- BV/TV [4, 11]: 0.123
- Conns-Dens [4, 11]: 128.6
- SMI [4, 11]: 1.38
- Tb. N [4, 11]: 2.43
- Tb. Sp [4, 11]: 0.528
- Tb. Th [4, 11]: 0.051
- Dens (Apparent Density, trabecular) ([4]; OVX CD-1 mice + omeprazole, GA 15 ug/animal single s.c., 8 weeks, trabecular bone, listed as GA): 70.7
- Dens (Apparent Density, trabecular) ([4]; OVX CD-1 mice + omeprazole, GA 15 ug/animal single s.c., 8 weeks, trabecular bone, listed as Gastrin antagonist): 70.7±19
- % Change BS [4, 12]: −15%*
- % Change BV/TV [4, 12]: 2%*
- % Change Ct. Th [4, 12]: +39%*^,**
- % Change Dens (Apparent Density, cortical) [4, 12]: −11%*^,**
- % Change pMOI [4, 12]: −11%
- % Change BS [4, 13]: −32%*^, **
- % Change BV/TV [4, 13]: −33%*^, **
- % Change Conns-Dens [4, 13]: −62%*^, **
- % Change Dens (Apparent Density, trabecular) [4, 13]: −60%*^, **
- % Change SMI [4, 13]: +20%**
- % Change Tb. N [4, 13]: −30%*^, **
- % Change Tb. Sp [4, 13]: +82%*
- % Change Tb. Th [4, 13]: +28%*
- CTX-1 [5, 14]: 053 ng/mL
- ESR (circulating estrogen) [5, 14]: 1.47 pg/mL
- Gastrin (circulating) [5, 14]: 2971 pg/mL
- Osteocalcin [5, 14]: 5.3 ng/mL
- PINP [5, 14]: 0.169 ng/mL
- PTH (circulating) [5, 14]: 92.1 pg/mL
- % Change CTX-1 [5, 15]: −9%**
- % Change ESR [5, 15]: −71%*
- % Change Gastrin [5, 15]: +22%
- % Change Osteocalcin [5, 15]: +30%**
- % Change PINP [5, 15]: 0%**
- % Change PTH [5, 15]: +79%*
- CTX-1 [6, 16]: 0.1 ng/mL
- ESR (circulating estrogen) [6, 16]: 2.54 pg/mL
- Osteocalcin [6, 16]: 1.13 ng/mL
- PINP [6, 16]: 0.13 ng/mL
- Gastrin (circulating) [6, 17]: 2703 pg/mL
- PTH (circulating) [6, 17]: 151 pg/mL
- Gastrin (circulating) [6, 18]: 2704 ± 430 pg/mL
- PTH (circulating) [6, 18]: 150 ± 37 pg/mL
- % Change CTX-1 [6, 19]: +230%
- % Change ESR [6, 19]: −70%*
- % Change Gastrin [6, 19]: −27%**
- % Change Osteocalcin [6, 19]: +13%
- % Change PINP [6, 19]: 0%*^, **
- % Change PTH [6, 19]: −48%*^, **
- BS [7, 20]: 43.3
- BV/TV [7, 20]: 0.965
- Ct. Th [7, 20]: 0.68
- pMOI [7, 20]: 14.03
- Dens (Apparent Density, cortical) ([7]; OVX CD rats + omeprazole, GA 50 ug/animal single s.c., 8 weeks, cortical bone, listed as GA): 1098
- Dens (Apparent Density, cortical) ([7]; OVX CD rats + omeprazole, GA 50 ug/animal single s.c., 8 weeks, cortical bone, listed as Gastrin-antagonist): 1098±24
- BS [7, 21]: 154
- BV/TV [7, 21]: 0.189
- Conns-Dens [7, 21]: 68.58
- Tb. N [7, 21]: 2.17
- Tb. Sp [7, 21]: 0.48
- Tb. Th [7, 21]: 0.09
- Dens (Apparent Density, trabecular) [7, 22]: 200.5
- SMI [7, 22]: 1.33
- Dens (Apparent Density, trabecular) [7, 23]: 204±27
- SMI [7, 23]: 1.3±0.17
- % Change BS [7, 24]: −13%*
- % Change BV/TV [7, 24]: 0%**
- % Change Ct. Th [7, 24]: +12%*
- % Change Dens (Apparent Density, cortical) [7, 24]: −4%*^,**
- % Change pMOI [7, 24]: −22%*
- % Change BS [7, 25]: −21%
- % Change BV/TV [7, 25]: −30%**
- % Change Conns-Dens [7, 25]: +8%
- % Change Dens (Apparent Density, trabecular) [7, 25]: −30%*^, **
- % Change SMI [7, 25]: +143%*
- % Change Tb. N [7, 25]: −18%**
- % Change Tb. Sp [7, 25]: +9%**
- % Change Tb. Th [7, 25]: −13%**

— US10709714B2 (CL BioSciences LLC, priority 2013, dated 2020)
